Literature values in patent US20150024042A1 (POZEN INC., priority 2011, published 2015).

Key:
[1] = in vivo
[2] = 95% CI 0.84 to 0.98
[3] = repeated oral doses of 75 mg clopidogrel (base)

time of peak plasma levels of the main circulating metabolite after dosing [3]: approximately one
Structure (SMILES): COC(=O)[C@H](c1ccccc1Cl)N1CCc2sccc2C1 [clopidogrel]
gastrointestinal hemorrhage, incidence [1]: 2.0 % annually
cardiovascular events compared with aspirin, OR [2]: 0.91
